From patent US9980973B2, “Bicyclic heterocycle compounds and their uses in therapy” (ASTEX THERAPEUTICS LIMITED, priority 2012, dated 2018)
Structures can show the parent of a compound that is named as a salt. Where two headings read alike, the source gives them in different places.

What was measured:
[1] = target: T1, BIR3 domain of human XIAP (Homo sapiens, UniProt P98170); assay: XIAP in vitro competitive displacement binding assay (fluorescence polarization); details: for inhibition at 0.04 µM: 1 h, PI at 0.04 μM, read-out: Xiap IC50 or PI μM (PI)
T1 construct: BIR3 domain of human XIAP (residues 252-350) fused to a His-tag; His-tag (cleaved yes); made in house; host or cells: Escherichia coli

[2] = tested on: EVSA-T (human breast carcinoma); assay: Anti-proliferative activity, Alamar Blue assay, EVSA-T; format: cell-based
[3] = Homo sapiens, EVSA-T, 72 h, EVSA-T cells, 72 hours, Alamar Blue, read-out: EVSA-T prolif
[4] = Homo sapiens, EVSA-T, read-out: EC50 in EVSA-T cell line assays
[5] = or at least 50% inhibition of the activity at 0.1 μM, read-out: IC50 in the XIAP assay
[6] = plain number = IC50, average where more than one data point, read-out: Xiap IC50 or PI μM (IC50)

T1 sequence (P98170 252-350): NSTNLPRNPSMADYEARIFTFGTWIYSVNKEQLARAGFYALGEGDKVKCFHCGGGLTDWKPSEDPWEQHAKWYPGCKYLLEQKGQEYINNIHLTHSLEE

Row | Compound | inhibition at 0.04 µM [1] | EC50 [2, 3] | EC50 [2, 4] | IC50 [1, 5] | IC50 [1, 6] | EC50 ([2]; EVSA-T cells, 72 hours, Alamar Blue, hydrochloride, read-out: EVSA-T prolif)
1 | CCCC(F)(F)c1cc2c(cn1)C(C)(C)CN2C(=O)CN1C[C@@H](C)NC[C@@H]1CN1CCOC[C@]1(C)CO (single isomer, unassigned) [Example 69, dihydrochloride] | 71% | 5.6 nM | < 1000 nM |  |  | 
2 | C[C@@H]1CN(CC(=O)N2CC(C)(C)c3cnc(Cc4ccc(F)cc4F)cc32)[C@@H](CN2CCOC[C@@]2(C)CO)CN1 (single isomer, unassigned) [Example 67, dihydrochloride] | 65% | 3.7 nM | < 1000 nM |  |  | 
3 | C[C@@H]1CN(CC(=O)N2CC(C)(C)c3ncc(Cc4ccc(F)cc4F)cc32)[C@@H](CN2CCOC[C@@]2(C)CO)CN1 [Example 58, 1-{6-[(2,4-Difluorophenyl)methyl]-3,3-dimethyl-1H,2H,3H-pyrrolo[3,2-b]pyridin-1-yl}-2-[(2R,5R)-2-{[(3R)-3-(hydroxymethyl)-3-methylmorpholin-4-l]methyl}-5-methylpiperazin-1-yl]ethan-1-one, dihydrochloride] | 51% | 0.7 nM | < 1000 nM | < 0.1 µM |  | 
4 | C[C@@H]1CN(CC(=O)N2CC(C)(C)c3ncc(Cc4ccc(F)cc4)cc32)[C@@H](CN2CC3CCC(C2)O3)CN1 [Example 18, 1-{6-[(4-Fluorophenyl)methyl]-3,3-dimethyl-1H,2H,3H-pyrrolo[3,2-b]pyridin-1-yl}-2-[(2R,5R)-5-methyl-2-{8-oxa-3-azabicyclo[3.2.1]octan-3-ylmethyl}piperazin-1-yl]ethan-1-one dihydrochloride] | 35% | 1.8 nM | < 1000 nM |  |  | 
5 | COC[C@]1(C)COCCN1C[C@H]1CN[C@H](C)CN1CC(=O)N1CC(C)(C)c2cnc(Cc3ccc(F)cc3F)cc21 [Example 97, 1-{6-[(2,4-Difluorophenyl)methyl]-3,3-dimethyl-1H,2H,3H-pyrrolo[3,2-c]pyridin-1-yl}-2-[(2R,5R)-2-{[(3R)-3-(methoxymethyl)-3-methylmorpholin-4-yl]methyl}-5-methylpiperazin-1-yl]ethan-1-one dihydrochloride] | 44% | 2.3 nM | < 1000 nM |  |  | 
6 | C[C@@H]1CN(CC(=O)N2CC(C)(C)c3nnc(Cc4ccc(F)cc4)cc32)[C@@H](CN2[C@H](C)COC[C@H]2C)CN1 [Example 87, 2-[(2R,5R)-2-{[(3R,5R)-3,5-Dimethylmorpholin-4-yl]methyl}-5-methylpiperazin-1-yl]-1-{3-[(4-fluorophenyl)methyl]-7,7-dimethyl-5H,6H,7H-pyrrolo[3,2-c]pyridazin-5-yl}ethan-1-one dihydrochloride] |  | 0.66 nM | < 1000 nM |  | 0.14 µM | 
7 | CC(=O)N1CCN(C[C@H]2CN[C@H](C)CN2CC(=O)N2CC(C)(C)c3ncc(Cc4ccc(F)cc4)cc32)[C@H](C)C1 [Example 52, 2-[(2R,5R)-2-{[(2R)-4-Acetyl-2-methylpiperazin-1-yl]methyl}-5-methylpiperazin-1-yl]-1-{6-[(4-fluorophenyl)methyl]-3,3-dimethyl-1H,2H,3H-pyrrolo[3,2-b]pyridin-1-yl}ethan-1-one, dihydrochloride] | 49% | 1 nM | < 1000 nM |  |  | 
8 | C[C@@H]1CN(CC(=O)N2CC(C)(C)c3ncc(Cc4ccc(F)cc4)cc32)[C@@H](CN2CCOC[C@]2(C)CO)CN1 [Example 50, 1-{6-[(4-Fluorophenyl)methyl]-3,3-dimethyl-1H,2H,3H-pyrrolo[3,2-b]pyridin-1-yl}-2-[(2R,5R)-2-{[(3S)-3-(hydroxymethyl)-3-methylmorpholin-4-yl]methyl}-5-methylpiperazin-1-yl]ethan-1-one, dihydrochloride] | 44% | 1.3 nM | < 1000 nM |  |  | 
9 | C[C@@H]1CN(CC(=O)N2CC(C)(C)c3cnc(Cc4ccc(F)cc4F)cc32)[C@@H](CN2CCOC[C@]2(C)CO)CN1 (single isomer, unassigned) [Example 66, dihydrochloride] | 78% | 0.8 nM | < 1000 nM |  |  | 
10 | C[C@@H]1CN(CC(=O)N2CC(C)(C)c3ncc(Cc4ccc(F)cc4)cc32)[C@@H](CN2C[C@@H](C)N[C@@H](C)C2)CN1 [Example 22, 2-[(2R,5R)-2-{[(3R,5S)-3,5-Dimethylpiperazin-1-yl]methyl}-5-methylpiperazin-1-yl]-1-{6-[(4-fluorophenyl)methyl]-3,3-dimethyl-1H,2H,3H-pyrrolo[3,2-b]pyridin-1-yl}ethan-1-one dihydrochloride] | 40% | 30 nM | < 1000 nM |  |  | 
11 | COC[C@@H]1COCCN1C[C@H]1CN[C@H](C)CN1CC(=O)N1CC(C)(C)c2cnc(Cc3ccc(F)cc3)cc21 [Example 96, 1-{6-[(4-Fluorophenyl)methyl]-3,3-dimethyl-1H,2H,3H-pyrrolo[3,2-c]pyridin-1-yl}-2-[(2R,5R)-2-{[(3R)-3-(methoxymethyl)morpholin-4-yl]methyl}-5-methylpiperazin-1-yl]ethan-1-one dihydrochloride] | 49% | 1.7 nM | < 1000 nM |  |  | 
12 | C[C@@H]1CN(CC(=O)N2CC(C)(C)c3ncc(Cc4ccc(F)cc4)cc32)[C@@H](CN2CC3CC2CO3)CN1 (stereo partly drawn) [Example 20, 1-{6-[(4-Fluorophenyl)methyl]-3,3-dimethyl-1H,2H,3H-pyrrolo[3,2-b]pyridin-1-yl}-2-[(2R,5R)-5-methyl-2-{2-oxa-5-azabicyclo[2.2.1]heptan-5-ylmethyl}piperazin-1-yl]ethan-1-one dihydrochloride] |  | 2.8 nM | < 1000 nM |  | 0.14 µM | 
13 | C[C@@H]1CN(CC(=O)N2CC(C)(C)c3ncc(Cc4ccc(F)cc4)cc32)[C@@H](CN2CCNC(=O)C2)CN1 [Example 42, 4-{[(2R,5R)-1-(2-{6-[(4-Fluorophenyl)methyl]-3,3-dimethyl-1H,2H,3H-pyrrolo[3,2-b]pyridin-1-yl}-2-oxoethyl)-5-methylpiperazin-2-yl]methyl}piperazin-2-one dihydrochloride] | 44% | 11 nM | < 1000 nM |  |  | 
14 | C[C@@H]1CN(CC(=O)N2CC(C)(C)c3ncc(Cc4ccc(F)cc4)cc32)[C@@H](CN2CCOCC2C(F)(F)F)CN1 (single isomer, unassigned) [Example 25, 1-{6-[(4-Fluorophenyl)methyl]-3,3-dimethyl-1H,2H,3H-pyrrolo[3,2-b]pyridin-1-yl}-2-[(2R,5R)-5-methyl-2-{[3-([R or S]trifluoromethyl)morpholin-4-yl]methyl}piperazin-1-yl]ethan-1-one hydrochloride] |  |  | < 1000 nM |  | 0.12 µM | 1.2 nM
15 | C[C@@H]1CN(CC(=O)N2CC(C)(C)c3ncc(Cc4ccc(F)cc4)cc32)[C@@H](CN2CCNC(=O)[C@H]2C)CN1 [Example 35, (3R)-4-{[(2R,5R)-1-(2-{6-[(4-Fluorophenyl)methyl]-3,3-dimethyl-1H,2H,3H-pyrrolo[3,2-b]pyridin-1-yl}-2-oxoethyl)-5-methylpiperazin-2-yl]methyl}-3-methylpiperazin-2-one] | 54% | 1.9 nM | < 1000 nM | < 0.1 µM |  | 
